Data as given in ChEMBL document CHEMBL1201862, “PubChem BioAssay data set” (2004).
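Grown in 96-well plates, cells were treated for 48 hours with each compound at five concentrations. Insufficient inhibition: endpoint recorded as highest concentration tested. GI50: concentration for 50% inhibition of growth.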 The source made the active and inactive calls. No stated cut-off is given here; in the data, active = GI50 up to about 1.1 µM and inactive = higher.

How the values were obtained:
Assay in all cases: inhibition of tumour cell growth, NCI panel, 48 h
A498 = tested on: A498
HCC 2998 = tested on: HCC 2998
HOP-62 = tested on: HOP-62
Hs-578T = tested on: Hs-578T
K562 = tested on: K562
M14 = tested on: M14
MDA-MB-231 = tested on: MDA-MB-231
NCI/ADR-RES = tested on: NCI/ADR-RES
OVCAR-3 = tested on: OVCAR-3
OVCAR-4 = tested on: OVCAR-4
PC-3 = tested on: PC-3
SF-539 = tested on: SF-539
SK-MEL-2 = tested on: SK-MEL-2
SNB-19 = tested on: SNB-19
T47D = tested on: T47D
UACC-257 = tested on: UACC-257
UACC-62 = tested on: UACC-62
SK-MEL-5 = tested on: SK-MEL-5
UO-31 = tested on: UO-31

Measured: GI50

O=C(N/N=C(COc1ccc(Cl)cc1)\N=C\c1cccnc1)c1ccncc1
inactive: A498 52.6 µM | HCC 2998 88.1 µM | HOP-62 > 100 µM | Hs-578T 23.7 µM | K562 64.4 µM | M14 > 100 µM | MDA-MB-231 > 100 µM | NCI/ADR-RES 57.4 µM | OVCAR-3 > 100 µM | OVCAR-4 > 100 µM | PC-3 > 100 µM | SF-539 57.3 µM | SK-MEL-2 > 100 µM | SNB-19 > 100 µM | T47D > 100 µM | UACC-257 99.5 µM | UACC-62 69 µM

COc1c2cc([N+](=O)[O-])cc1CNC(=O)CN1CCOCCOCCN(CCOCCOCC1)CC(=O)NC2
inactive: A498 > 100 µM | HCC 2998 > 100 µM | HOP-62 > 100 µM | Hs-578T > 100 µM | K562 > 100 µM | M14 > 100 µM | MDA-MB-231 > 100 µM | NCI/ADR-RES > 100 µM | OVCAR-3 > 100 µM | OVCAR-4 > 100 µM | PC-3 > 100 µM | SK-MEL-2 > 100 µM | SK-MEL-5 > 100 µM | SNB-19 > 100 µM | T47D > 100 µM | UACC-257 > 100 µM | UACC-62 > 100 µM | UO-31 > 100 µM

O=C1CNc2cc(N3CCN(c4ccccc4)CC3)ccc2N1
inactive: A498 > 100 µM | HCC 2998 > 100 µM | HOP-62 > 100 µM | Hs-578T > 100 µM | K562 > 100 µM | M14 > 100 µM | MDA-MB-231 > 100 µM | NCI/ADR-RES > 100 µM | OVCAR-3 > 100 µM | OVCAR-4 > 100 µM | PC-3 > 100 µM | SK-MEL-2 > 100 µM | SK-MEL-5 > 100 µM | SNB-19 > 100 µM | T47D > 100 µM | UACC-257 > 100 µM | UACC-62 > 100 µM | UO-31 > 100 µM

CN(C)c1ccc(/C=C2\N=C(NNc3ccccc3)NC2=O)cc1
inactive: A498 17.1 µM | HCC 2998 14 µM | HOP-62 30.3 µM | Hs-578T 35 µM | M14 37.3 µM | MDA-MB-231 13.7 µM | NCI/ADR-RES 19.8 µM | OVCAR-3 16 µM | OVCAR-4 24.2 µM | PC-3 13.2 µM | SF-539 19.5 µM | SK-MEL-2 18.7 µM | SNB-19 35.6 µM | T47D 11.7 µM | UACC-257 15.6 µM | UACC-62 28.8 µM | UO-31 31 µM

COc1ccc2c(c1OC)C(C(Cl)(Cl)Cl)N1CCc3cc4c(cc3C1=C2)OCO4 (stereo not given)
inactive: A498 67.6 µM | HCC 2998 10.8 µM | Hs-578T 18.4 µM | M14 28.4 µM | MDA-MB-231 23.5 µM | NCI/ADR-RES 44.6 µM | OVCAR-3 7.43 µM | OVCAR-4 5.93 µM | PC-3 24.7 µM | SF-539 35 µM | SK-MEL-2 17.2 µM | SK-MEL-5 3.94 µM | SNB-19 5.82 µM | T47D 10.8 µM | UACC-257 7.16 µM | UACC-62 11.8 µM | UO-31 35.6 µM

Cc1cc2c(cc1-c1cc3c(cc1C)C(C(C)C)=C(O)C(=O)/C3=C\Nc1cccc3c(N)cccc13)/C(=C/Nc1cccc3c(N)cccc13)C(=O)C(O)=C2C(C)C
inactive: A498 > 100 µM | HCC 2998 > 100 µM | HOP-62 > 100 µM | Hs-578T > 100 µM | K562 54.3 µM | M14 48.5 µM | MDA-MB-231 > 100 µM | NCI/ADR-RES > 100 µM | OVCAR-3 > 100 µM | OVCAR-4 > 100 µM | PC-3 79.8 µM | SK-MEL-2 > 100 µM | SK-MEL-5 > 100 µM | SNB-19 > 100 µM | T47D > 100 µM | UACC-257 > 100 µM | UACC-62 > 100 µM | UO-31 30.8 µM
